Publication PMC3750913 (BMC Microbiology, 2013)
Where two headings read alike, the source gives them in different places.

Key:
HCV [1] = assay: Viral attachment assay, method 2 (virus-specific cellular ELISA); assay type: cell-based, hepatitis C virus; conditions: HCV MOI 0.1, ELISA, 4°C; highest inhibitory concentration of the compounds
MV [2] = assay: Viral cell-to-cell spread assay; assay type: cell-based, measles virus; conditions: for effect on viral plaque size (cell-to-cell spread): MV, Figure 7
MV [3] = assay: microbe, parasite or virus in culture; assay type: cell-based, measles virus; conditions: for EC50: MV in CHO-SLAM cells, co-treatment with viral inoculum, read-out: Antiviral effect EC50; for SI (selectivity index, CC50/EC50): MV, CHO-SLAM cells
HCMV [4] = assay: Viral inactivation assay; assay type: cell-based, human cytomegalovirus
DENV-2 [5] = assay: Dose-response antiviral assay (immunohistochemical staining plaque assay); assay type: cell-based, dengue virus type 2; conditions: DENV-2, Vero cells
VSV = assay type: cell-based, vesicular stomatitis virus; conditions: A549 cells
MV [6] = assay: Analysis of drug effects post viral entry; assay type: cell-based, measles virus; conditions: for protection, treatment post-infection: MV, Figure 6
HCV [7] = assay: Viral inactivation assay; assay type: cell-based
DENV-2 [8] = assay: Analysis of drug effects post viral entry; assay type: cell-based, dengue virus type 2; conditions: DENV-2; Figure 6
HCMV [9] = assay: Viral penetration assay; assay type: cell-based, human cytomegalovirus; conditions: for protection of the host cell from infection during virus penetration: HCMV, shift 4°C to 37°C, Figure 4
XTT cytotoxicity assay = assay type: cell-based
Protocol: Cells (1 × 10^4 per well of 96-well plate) were treated with the test compounds for 3 days. Treatment effects on cell viability (%) and the 50% cytotoxic concentration (CC50) values of the test compounds were determined based on the XTT (2,3-bis[2-methoxy-4-nitro-5-sulfophenyl]-5-phenylamino)-carbonyl]-2H-tetrazolium hydroxide) assay as previously reported.

ADV-5 = assay: Dose-response antiviral assay (plaque assay); assay type: cell-based, human adenovirus type-5; conditions: Human adenovirus sp.; ADV-5 in A549 cells, co-treatment with viral inoculum; read-out: Antiviral effect EC50
DENV-2 [10] = assay: Viral cell-to-cell spread assay; assay type: cell-based, dengue virus type 2; conditions: for effect on viral plaque size (cell-to-cell spread): DENV-2, Figure 7; for inhibition at 25 µM: Dengue virus, DENV2, Vero, read-out: Window of antiviral effects: Cell-to-cell spread, inhibitory effect relative to DMSO control
DENV-2 [11] = assay: Viral attachment assay, method 1 (host cell infection); assay type: cell-based, dengue virus type 2; conditions: DENV-2, method 1, 4°C; Figure 4
HCV [12] = assay: Analysis of drug effects post viral entry; assay type: cell-based, hepatitis C virus; conditions: for protection, treatment post-infection: HCV, Figure 6; for inhibition at 50 µM: Hepatitis C virus, Huh7.5, read-out: Window of antiviral effects: Post-infection, inhibitory effect relative to DMSO control
[13] = cited from earlier work
DENV-2 [14] = assay: Viral attachment assay, method 2 (virus-specific cellular ELISA); assay type: cell-based, dengue virus type 2; conditions: DENV-2 MOI 5, ELISA, 4°C; highest inhibitory concentration of the compounds
MV [15] = assay: Viral inactivation assay; assay type: cell-based, measles virus; conditions: for block of infection after pre-incubation of free virus with compound: MV, CHLA 90 μM, PUG 50 μM, Figure 3
HCMV [16] = assay: Dose-response antiviral assay (plaque assay); assay type: cell-based, human cytomegalovirus; conditions: for SI (selectivity index, CC50/EC50): HCMV, HEL cells; for EC50: HCMV in HEL cells, co-treatment with viral inoculum, read-out: Antiviral effect EC50
RSV = assay: Analysis of drug effects post viral entry; assay type: cell-based, respiratory syncytial virus; conditions: for protection, treatment post-infection: RSV, Figure 6
[17] = Measles morbillivirus, read-out: Window of antiviral effects: Cell-to-cell spread, inhibitory effect relative to DMSO control
[18] = Human betaherpesvirus 5, read-out: inhibition of infection after pre-incubation of free virus with compound
[19] = Measles morbillivirus, read-out: Window of antiviral effects: Post-infection, inhibitory effect relative to DMSO control
[20] = Hepatitis C virus, Huh7.5, read-out: Window of antiviral effects: Free particle, inhibitory effect relative to DMSO control
[21] = Human betaherpesvirus 5, HEL, read-out: Window of antiviral effects: Penetration, inhibitory effect relative to DMSO control
[22] = Measles morbillivirus, read-out: Window of antiviral effects: Free particle, inhibitory effect relative to DMSO control

O=C1O[C@H]2[C@@H]3OC(=O)c4cc(O)c(O)c(O)c4-c4c(O)c(O)c5oc(=O)c6c(c(O)c(O)c7oc(=O)c4c5c76)-c4c(cc(O)c(O)c4O)C(=O)OC[C@H]3OC(O)[C@@H]2OC(=O)c2cc(O)c(O)c(O)c2-c2c1cc(O)c(O)c2O (mixture of isomers) [PUG, punicalagin]
Window of antiviral effects: Attachment Method 2, inhibitory effect relative to DMSO control (HCV [1]): +++ (+++ > 75%) | effect on viral plaque size (cell-to-cell spread) (MV [2]): near initial size | inhibition at 50 µM (MV [2]; [17]): > 75% | EC50 (MV [3]): 25.5 ± 2.94 µM | SI (selectivity index, CC50/EC50) (MV [3]): 11.13 | EC50 (MV [3]; Measles morbillivirus): < 35 µM | inhibition at 40 µM (HCMV [4]; Human betaherpesvirus 5, HEL, read-out: Window of antiviral effects: Free particle, inhibitory effect relative to DMSO control): > 75% | inhibition at 40 µM (HCMV [4]; [18]): ~100% | SI (selectivity index, CC50/EC50) (DENV-2 [5]): 19.27 | SI (selectivity index, CC50/EC50) (VSV): 8.62 | protection, treatment post-infection (MV [6]): 80 – 100% | inhibition at 50 µM (MV [6]; [19]): > 75% | inhibition at 50 µM (HCV [7]; [20]): > 75% | inhibition at 50 µM (HCV [7]; Hepatitis C virus, read-out: inhibition of infection after pre-incubation of free virus with compound): ~100% | protection, treatment post-infection (DENV-2 [8]): < 25% | protection of the host cell from infection during virus penetration (HCMV [9]): 50 – 90% | inhibition at 40 µM (HCMV [9]; [21]): 50 to 75% | CC50 at 3 days (XTT cytotoxicity assay; African green monkey, Vero cells, XTT assay, 3 days treatment, read-out: CC50): 151 ± 9.31 µM | CC50 at 3 days (XTT cytotoxicity assay; Chinese hamster, CHO-SLAM cells, XTT assay, 3 days treatment, read-out: CC50): 284 ± 11.5 µM | CC50 at 3 days (XTT cytotoxicity assay; human, A549 cells, 3 days treatment): 319 ± 4.99 µM | CC50 at 3 days (XTT cytotoxicity assay; human, HEL cells, 3 days treatment): 299 ± 9.14 µM | CC50 at 3 days (XTT cytotoxicity assay; human, HEp-2 cells, 3 days treatment): 265 ± 23.7 µM | CC50 at 3 days (XTT cytotoxicity assay; human, Huh-7.5 cells, 3 days treatment): 223 ± 3.41 µM | EC50 (ADV-5): 197 ± 20.1 µM | effect on viral plaque size (cell-to-cell spread) (DENV-2 [10]): unaffected and expanded further | inhibition at 25 µM (DENV-2 [10]): < 25% | inhibition of virus attachment (DENV-2 [11]): 90 – 100% | protection, treatment post-infection (HCV [12]): 80 – 100% | inhibition at 50 µM (HCV [12]): > 75% | in vivo toxicity ([13]; In vivo toxicological and metabolic studies, ref [67], [68]): minimal toxicity | Window of antiviral effects: Attachment Method 2, inhibitory effect relative to DMSO control (DENV-2 [14]): +++ (+++ > 75%) | block of infection after pre-incubation of free virus with compound (MV [15]): 60 – 80% | inhibition at 50 µM (MV [15]; [22]): 50 to 75% | SI (selectivity index, CC50/EC50) (HCMV [16]): 17.86 | protection, treatment post-infection (RSV): < 25% | inhibition at 2 µM (RSV; human respiratory syncytial virus, HEp-2, read-out: Window of antiviral effects: Post-infection, inhibitory effect relative to DMSO control): < 25%

O=C(O)C[C@@H]1C(=O)O[C@H]2[C@@H]3OC(=O)c4cc(O)c(O)c(O)c4-c4c(cc(O)c(O)c4O)C(=O)OC[C@H]2O[C@@H](OC(=O)c2cc(O)c(O)c(O)c2)[C@@H]3OC(=O)c2cc(O)c(O)c3c2[C@H]1[C@H](O)C(=O)O3 [CHLA, chebulagic acid]
Window of antiviral effects: Attachment Method 2, inhibitory effect relative to DMSO control (HCV [1]): +++ (+++ > 75%) | effect on viral plaque size (cell-to-cell spread) (MV [2]): near initial size | inhibition at 90 µM (MV [2]; [17]): > 75% | EC50 (MV [3]): 34.4 ± 4.35 µM | SI (selectivity index, CC50/EC50) (MV [3]): 10.22 | EC50 (MV [3]; Measles morbillivirus): < 35 µM | inhibition at 60 µM (HCMV [4]; [18]): ~100% | SI (selectivity index, CC50/EC50) (DENV-2 [5]): 12.18 | SI (selectivity index, CC50/EC50) (VSV): 5.17 | protection, treatment post-infection (MV [6]): 80 – 100% | inhibition at 90 µM (MV [6]; [19]): > 75% | inhibition at 50 µM (HCV [7]; [20]): > 75% | inhibition at 50 µM (HCV [7]; Hepatitis C virus; read-out: inhibition of infection after pre-incubation of free virus with compound): ~100% | protection, treatment post-infection (DENV-2 [8]): < 25% | protection of the host cell from infection during virus penetration (HCMV [9]): 50 – 90% | inhibition at 60 µM (HCMV [9]; [21]): 50 to 75% | CC50 at 3 days (XTT cytotoxicity assay; African green monkey): 160 ± 7.46 µM | CC50 at 3 days (XTT cytotoxicity assay; Chinese hamster): 352 ± 4.54 µM | EC50 (ADV-5): 198 ± 14.1 µM | effect on viral plaque size (cell-to-cell spread) (DENV-2 [10]): unaffected and expanded further | inhibition at 25 µM (DENV-2 [10]): < 25% | inhibition of virus attachment (DENV-2 [11]): 90 – 100% | protection, treatment post-infection (HCV [12]): 80 – 100% | inhibition at 50 µM (HCV [12]): > 75% | in vivo toxicity ([13]; in vivo): minimal toxicity | Window of antiviral effects: Attachment Method 2, inhibitory effect relative to DMSO control (DENV-2 [14]): +++ (+++ > 75%) | block of infection after pre-incubation of free virus with compound (MV [15]): 60 – 80% | inhibition at 90 µM (MV [15]; [22]): 50 to 75% | EC50 (HCMV [16]): 25.5 ± 1.51 µM | SI (selectivity index, CC50/EC50) (HCMV [16]): 12.01 | EC50 (HCMV [16]; Human betaherpesvirus 5, HEL): < 35 µM | protection, treatment post-infection (RSV): < 25%
